Reference: patent publication US20150136233A1, “ORGANIC PHOTOVOLTAIC DEVICES COMPRISING FULLERENES AND DERIVATIVES” (The Regents of the University of California, priority 2013, published 2015)

Tests used:
[1] = LUMO energy level by cyclic voltammetry; assay type: physicochemical; details: for LUMO Energy Level: cyclic voltammetry, onset of first reduction, ferrocene internal reference, o-dichlorobenzene/acetonitrile 4:1
Description: The electronic property of the synthesized fullerenes are characterized by cyclic voltammetry (CV) using a Bio-Logic Multi-channel Potentiostat with Pt as a counter electrode, Ag/Ag+ as a reference electrode and ferrocene as an internal reference, with 4:1 v/v ratio of o-dichlorobenzene and acetonitrile as solvent and 0.1 M tetrabutylammonium hexafluorophosphate as electrolyte at a scan rate of 100 mV/s. […] The LUMO levels are calculated according to the following equation 2 using the onset of the first reduction. The data are listed in Table 2, LUMOs of C60, C70, PCBM, Bis-PCBM, ICMA and ICBA were measured under the same condition and listed too as reference.
ELUMO=[(EFLN(Vs Ag/Ag+)(E^1/2Ferrocene(Vs Ag/Ag+)]−4.8 eV (equation 2)

[2] = references [15, 18]; cited from earlier work

Row | Compound | LUMO increase compared to pristine C60 [1] | LUMO Energy Level [1] | LUMO higher than that of PCBM [1] | LUMO of bis-addition fullerene higher than LUMO of the mono-addition fullerene (PCBM, ICMA respectively) [2]
1 | 1′,4′-dihydro-naphtho[2′,3′:1,2][5,6]fullerene-C60 [IC60MA] | about 0.1 eV | −3.76 eV | – | –
2 | COC(=O)CCCC1(c2ccccc2)C23c4c5c6c7c8c9c(c%10c%11c2c2c%12c4c4c%13c5c5c7c7c8c8c%14c9c%10c9c%10c%11c2c2c%11c%12c4c4c%12c%13c5c5c7c7c8c8c%14c9c9c%10c2c2c%11c4c4c%12c5c7c5c8c9c2c45)C613 (stereo not shown) [PC61BM, [6,6]-phenyl C61-butyric acid methyl ester] | about 0.1 eV | −3.80 eV | – | –
3 | bis(1-[3-(methoxycarbonyl)propyl]-1-phenyl)[6.6]C62 [Bis-PC61BM] | – | −3.72 eV | 0.1 eV | about 0.1 eV
